Test: Flash point of solvents, closed cup method
Format: physicochemical
Description: In one embodiment, the formulation contains a mixture of organic solvent and isopropyl alcohol.

**Q.** Which flash point does the source give for `OCc1ccccc1` [benzyl alcohol] here?
**A.** 100.6 °C

**Q.** With `C=C(C)[C@H]1CC=C(C)CC1` [dipentene] as the molecule, how does the flash point read?
**A.** 46 °C

**Q.** With `CCO` [ethyl alcohol] as the molecule, how does the flash point read?
**A.** 14 °C

**Q.** Which flash point does the source give for `CC(C)O` [isopropyl alcohol] here?
**A.** 11.7 °C

**Q.** Which flash point does the source give for `CC(O)CO` (centres unmarked) [propylene glycol] here?
**A.** 99 °C
